Measured values from patent US10434111B2, “Compositions and methods for modification of biomolecules” (THE REGENTS OF THE UNIVERSITY OF CALIFORNIA, priority 2004, dated 2019).

Assays:
[1] = Kinetic evaluation of [3+2] cycloaddition of cyclooctyne probes with 2-azidoethanol (1H NMR); assay type: physicochemical; details: HOCH2CH2N3, CD3CN/PBS (55:45), 22° C.
Method: (§1) Stock solutions of cyclooctynes 3a and 3b (50 mM), benzyl azide (500 mM) and 2-azidoethanol (500 mM) were made in either CD3CN or a 55:45 mixture of CD3CN and deuterated Dulbecco's phosphate-buffered saline (pH 7.4, made with D2O). Gentle heating and/or sonication in a H2O bath was required to fully dissolve 3a and 3b. An NMR tube was charged with 450 μL of either 3a or 3b, and 50 μL of either benzyl azide or 2-azidoethanol, and the reaction was monitored over time using ^1H NMR spectroscopy.
(§2) In the case of the reactions of 3a and 3b with benzyl azide, the kinetic data were derived by monitoring the change in integration of resonances corresponding to the benzylic protons in benzyl azide (δ˜4.2 ppm) compared to the corresponding resonances of the triazole products (δ ˜5.0 to 5.5 ppm). […]
(§3) Second-order rate constants for the reaction were determined by plotting 1/[benzyl azide] versus time in the case of the reactions of 3a and 3b with benzyl azide and by plotting 1/[3a] versus time or 1/[3b] versus time in the case of the reactions of 3a and 3b with 2-azidoethanol, and subsequent analysis by linear regression. Second-order rate constants correspond to one half of the determined slope (Table 1). […]

[2] = Kinetic evaluation of [3+2] cycloaddition of cyclooctyne probes with benzyl azide (1H NMR); assay type: physicochemical; details: PhCH2N3, CD3CN, 22° C.
Method: as §1, §2, §3

[3] = Stability of cyclooctyne 3 to acid, base and biological nucleophiles; assay type: physicochemical
Method: [drawing 31] by Reese and Shaw. Reese and Shaw (1970) Chem. Comm. 1172-1173. Briefly, compound 1 (Skattebol and Solomon, supra) was treated with silver perchlorate to effect electrocyclic ring opening to the trans-allylic cation, which was captured with methyl hydroxymethylbenzoate to afford bromo-trans-cyclooctene 2. Base-mediated elimination of the vinyl bromide followed by saponification yielded versatile intermediate 3, to which any biological probe can be attached. Finally, compound 3 was coupled to biotin analog 4 (Wilbur et al. (1996) Bioconj. Chem. 7:689-702) bearing a PEG linker, providing target 5. Cyclooctyne 3 was stable to mild acid (0.5 N HCl for 30 min), base (0.8 M NaOMe for 30 min), and prolonged exposure to biological nucleophiles such as thiols (120 mM 2-mercaptoethanol for 12 h).

[4] = system: Jurkat cells; experiment: Cell surface azide labeling and detection, Jurkat cells, FITC-avidin flow cytometry; assay type: cell-based, human
Method: Jurkat cells were seeded at a density of 1.5-2.0×10^5 cells/mL and incubated for 3 d in untreated media or media containing various concentrations of Ac4ManNAz. […] Cells were then incubated with 5 or a biotinylated phosphine probe (Vocadlo et al. (2003) Proc. Natl. Acad. Sci. U.S.A. 100:9116-21) in labeling buffer containing 2.8% DMF or labeling buffer plus 2.8% DMF alone. […] Following a 10-min incubation on ice (in the dark), cells were washed with 200 μL of cold labeling buffer and the FITC-avidin staining procedure was repeated.
FIGS. 3A and 3B. Cell surface labeling with compound 5. Jurkat cells were incubated in the presence (+Az) or absence (−Az) of 25 μM Ac4ManNAz for 3 d. FIG. 3A. The cells were reacted with various concentrations of 5 for 1 h at rt and treated with FITC-avidin; mean fluorescence intensity (MFI) was determined by flow cytometry. FIG. 3B. The cells were incubated with 250 μM 5 for various durations at rt and analyzed as in A. C. The cells were incubated with 100 μM probe for 1 h at rt and analyzed as in A. Error bars represent the standard deviation from three replicates. AU=arbitrary fluorescence units.

[5] = target: T1, azide-labeled GlyCAM-Ig (Mus musculus, UniProt Q02596); experiment: Western blot analysis of azide-labeled GlyCAM-Ig; assay type: biochemical; details: for labeling (biotinylation) of GlyCAM-Ig modified with SiaNAz: 250 μM probe alone, overnight at rt, no copper catalysis
T1 construct: made in house; host or cells: CHO cells grown with Ac4ManNAz
T1 sequence (Q02596 20-151): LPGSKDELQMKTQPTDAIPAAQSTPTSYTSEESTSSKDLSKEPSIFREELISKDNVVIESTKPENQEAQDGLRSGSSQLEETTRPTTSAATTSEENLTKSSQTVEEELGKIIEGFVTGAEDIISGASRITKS
Method: For Western blot analysis of azide-labeled and unlabeled GlyCAM-Ig, samples were incubated with 5 (250 μM final concentration in PBS, pH 7.4 containing 0.7% DMF), 6 (250 μM final concentration in PBS, pH 7.4 containing either 0.7% DMF) or left untreated for 12 h. To verify that 6 could react with azide-labeled GlyCAM-Ig via copper-mediated [3+2] cycloaddition, a modified version of the method reported by Speers and Cravatt was employed. Speers and Cravatt (2004) Chem. Biol. 11:535-46. Briefly, GlyCAM-Ig samples (in PBS, pH 7.4 containing 0.7% DMF) were incubated with 250 μM 6, 2.5 mM TCEP, 250 μM tris-triazolyl ligand (from a 1.7 mM stock in 1:4 DMSO:tert-butanol), and 2.5 mM CuSO4. Samples were vortexed and allowed to react at rt for 12 h. Prior to electrophoresis, samples were incubated with an equal volume of 100 mM 2-azidoethanol in 2×SDS-PAGE loading buffer for 8 h at rt (to quench unreacted 5 or 6). The quenched samples were boiled for 3 min and loaded onto precast polyacrylamide gels. After electrophoresis, the samples were electroblotted to nitrocellulose membrane. The membrane was blocked using 5% BSA in PBS (pH 7.4, containing 0.05% Tween 20 (blocking buffer A) for 1 h at rt, then incubated with a solution of blocking buffer A containing HRP-α-biotin (1:250,000 dilution, 1 h at rt). The membrane was washed, and detection of membrane-bound anti-biotin-HRP was accomplished by chemiluminescence. Following detection, the membrane was rinsed with PBS (pH 7.4) containing 0.05% Tween (PBS-T) and placed in stripping buffer (15 min at RT) to remove bound anti-biotin Ig. The membrane was thoroughly rinsed with PBS-T and probed for residual anti-biotin signal by chemiluminescence.
The membrane was washed and re-blocked with 5% low-fat dry powdered milk (blocking buffer B) for 1 h at rt. The membrane was then incubated with HRP-α-Ig (1:5000 in blocking buffer B) for 1 h at rt. The membrane was washed again with PBS-T, and detection of membrane bound anti-human Ig was accomplished as for peroxidase-conjugated anti-biotin. Control samples were treated in an identical manner, except that specific reagents were replaced by buffer where appropriate.
FIG. 2. Labeling of azide-modified GlyCAM-Ig with alkyne probes. Purified GlyCAM-Ig was treated with buffer (−), 250 μM 5, or 250 μM 6 alone or in the presence (cat) of CuSO4, TCEP, and a triazolyl ligand, overnight at rt. Reaction mixtures were quenched with 2-azidoethanol and analyzed by Western blot probing with HRP-α-biotin (upper panel). The blot was then stripped and reprobed with HRP-α-Ig (lower panel).

[6] = system: Jurkat cells

With `O=C(O)c1ccc(CC2C#CCCCCC2)cc1` (stereo not drawn) [Compound 3a, 4-Cyclooct-2-ynylmethylbenzoic acid] the “k, second-order rate constant for the [3 + 2] cycloaddition” value (shortened to “k, second-order rate constant”) [1] was 0.0011 M⁻¹ s⁻¹ and the “k, second-order rate constant” value [2] was 0.0012 M⁻¹ s⁻¹.

With `O=C(O)c1ccc(COC2C#CCCCCC2)cc1` (stereo not drawn) [Compound 3] the “stability to biological nucleophiles such as thiols” value ([3]; 120 mM 2-mercaptoethanol for 12 h) was “stable”, the “stability to mild acid” value ([3]; 0.5 N HCl for 30 min) was “stable” and the stability to base ([3]; 0.8 M NaOMe for 30 min) was “stable”.

For `O=C(CCCC[C@@H]1SC[C@@H]2NC(=O)N[C@@H]21)NCCCOCCOCCOCCCNC(=O)c1ccc(COC2C#CCCCCC2)cc1` (stereo partly drawn) [Compound 5], the “dependence of cell surface reaction on incubation time” value ([4]; Jurkat +Az, 250 μM probe for various durations at rt) was “dependent on duration of incubation”, the “effects on cell viability” value ([4]; Jurkat cells treated with probe) was “No negative effects” and the “labeling of cells lacking azides” value ([4]; Jurkat grown without Ac4ManNAz) was “No detectable labeling”. The “fluorescence of cells displaying azides upon treatment with the cyclooctyne probe” value ([4]; Jurkat, 25 μM Ac4ManNAz 3 d, various concentrations of probe, rt, FITC-avidin) was “dose-dependent increase in fluorescence”, the “labeling (biotinylation) of GlyCAM-Ig modified with SiaNAz” value ([5]; HRP-α-biotin blot) was “Robust biotinylation” and the “labeling of native GlyCAM-Ig lacking azides” value ([5]; 250 μM probe overnight, HRP-α-biotin blot) was “no background labeling”.

In the case of `C#CCCC(=O)NCCCOCCOCCOCCCNC(=O)CCCC[C@@H]1SC[C@@H]2NC(=O)N[C@@H]21` [Compound 6], the “labeling (biotinylation) of GlyCAM-Ig modified with SiaNAz” value ([5]; HRP-α-biotin blot) is reported as “no glycoprotein labeling”, the “labeling of the azide-modified glycoprotein with copper catalysis” value ([5]; 250 μM probe plus CuSO4, TCEP and a triazolyl ligand) is reported as “facile labeling” and the “anti-IgG immunoreactivity of labeled azide-modified GlyCAM-Ig” value ([5]; in the presence of copper, blot reprobed with HRP-α-IgG) is reported as “consistently diminished”.

For `O=C(CCCC[C@@H]1SC[C@@H]2NC(=O)N[C@@H]21)NCCCOCCOCCOCCCNC(=O)COC1CCC#CC(F)(F)CC1` (stereo partly drawn) [DIFO-biotin], the “labeling of azide-containing membrane-associated glycans in live cells” value ([6]; 0 or 25 μM Ac4ManNAz 3 days, probe 1 h, FITC-avidin) was “selectively label” and the “sensitivity of azide detection compared to a nonfluorinated cyclooctyne or a phosphine capable of Staudinger ligation” value ([6]; 100 μM probes, 1 h) was “much higher”.

In the case of `O=C(O)c1ccc(CC2(F)C#CCCCCC2)cc1` (stereo not drawn) [Compound 3b, 4-(1-Fluoro-cyclooct-2-ynylmethyl)benzoic acid], the “k, second-order rate constant” value [1] is reported as 0.004 M⁻¹ s⁻¹ and the “k, second-order rate constant” value [2] is reported as 0.0042 M⁻¹ s⁻¹.
